The text below walks through data of patent US12384772B2, “Inhibitors” (VIVORYON THERAPEUTICS N.V., priority 2017, dated 2025).

Each structure is given as a SMILES string. Where two headings read alike, the source gives them in different places.

The assay deals with Glutaminyl cyclase (QC) (Homo sapiens (Human), UniProt Q16769). Description: Glutaminyl cyclase assay, determination of IC50 values and calculation of Ki values (H-Gln-AMC substrate, pGAP auxiliary enzyme; pH 8.0 or pH 6.0). The class given is biochemical. The procedure: 10 mM compound stock solutions were prepared in DMSO. For IC50 determination compound stocks were serially diluted (1:3) in DMSO.
Chain of Glutaminyl cyclase (QC) (Q16769 29-361): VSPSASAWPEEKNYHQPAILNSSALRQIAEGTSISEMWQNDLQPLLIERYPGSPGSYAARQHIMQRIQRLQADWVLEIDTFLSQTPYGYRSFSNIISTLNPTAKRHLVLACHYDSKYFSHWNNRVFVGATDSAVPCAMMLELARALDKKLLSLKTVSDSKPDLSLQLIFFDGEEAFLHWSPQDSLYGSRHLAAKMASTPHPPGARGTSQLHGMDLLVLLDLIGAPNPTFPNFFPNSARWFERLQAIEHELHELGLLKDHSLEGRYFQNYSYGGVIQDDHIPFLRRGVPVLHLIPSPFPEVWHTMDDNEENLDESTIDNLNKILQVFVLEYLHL
All measurements were performed with an EnSpire Perkin Elmer multimode reader using glutaminyl-7-amino-4-methylcoumarin (H-Gin-AMC) as substrate and recombinant pyroglutamyl aminopeptidase (pGAP) as auxiliary enzyme. Reactions were carried out at ambient temperature in black 96-well half area microplates. Each sample consisted of 1 μl test compound solution or solvent (DMSO) and 49 μl QC appropriately diluted in assay buffer (50 mM Tris/HCl, pH 8.0 or 50 mM MES buffer, pH=6.0). After a 10 min preincubation at ambient temperature the enzyme reaction was started by adding 50 μl of Gln-AMC-substrate/pGAP mixture in assay buffer. Final substrate concentrations were 50 and 200 μM for measurement at pH 8.0 or 6.0, respectively. Release of flourogenic AMC were recorded at excitation/emission wavelengths of 380/460 nm. Initial velocity of the enzyme reaction was calculated by linear regression of the first 10 data points using the Enspire Manager software. Final evaluation and calculation of IC50s were performed using GraphPad Prism software.
Ki-values were calculated according to the following formula: Ki=IC50/(1+[S]/Km), where: […]

Setting [1] is: pH 6, read-out: hQC Ki [μM] pH6.
Where [2] appears, read: pH 8, read-out: hQC Ki [μM] pH8.

For `COc1ccc(-c2c(C)cccc2NCc2ccc3[nH]cnc3c2)cc1OC` [O21, N-(1H-1,3-benzodiazol-5-ylmethyl)-2-(3,4-dimethoxyphenyl)-3-methylaniline], the inhibition constant Ki is, setting by setting: under setting [1], 0.43 µM; under setting [2], 0.42 µM.
On the same counts, the results for `Fc1cccc(NCc2ccc3[nH]cnc3c2)c1-c1ccc(Cl)cc1` [O22, N-(1H-1,3-benzodiazol-5-ylmethyl)-2-(4-chlorophenyl)-3-fluoroaniline] are 4.89 µM and 6.83 µM.
On the same counts, the results for `COc1ccc(-c2c(F)cccc2NCc2ccc3[nH]cnc3c2)cc1OC` [O23, N-(1H-1,3-benzodiazol-5-ylmethyl)-2-(3,4-dimethoxyphenyl)-3-fluoroaniline] are 0.055 µM and 0.1 µM.
The like results for `Fc1ccc(-c2c(F)cccc2NCc2ccc3[nH]cnc3c2)cc1` [O24, N-(1H-1,3-benzodiazol-5-ylmethyl)-3-fluoro-2-(4-fluorophenyl)aniline] were, in that order, 5.81 µM and 9.41 µM.
As for `O=S(=O)(NCc1ccc2[nH]cnc2c1)c1ccc(F)cc1` [P1, N-[(1H-1,3-benzodiazol-5-yl)methyl]-4-fluorobenzene-1-sulfonamide], the Ki was 38.3 µM under setting [1] and 24.7 µM under setting [2].

The Ki is the dissociation constant of the complex between target and ligand, obtained from inhibition or displacement.
